Laboratory results published in patent US9446047B2, “Substituted 2,3-dihydro-1H-inden-1-one retinoic acid-related orphan nuclear receptor antagonists for treating multiple sclerosis” (Arrien Pharmaceuticals LLC, priority 2013, dated 2016).

How the values were obtained:
RORγ-LBD (RORγt) = biological target: T1, RORγ-LBD (RORγt) (Homo sapiens, UniProt P51449); test: TR-FRET RORγt Binding Assay; conditions: 6-His(GST)RORγ-LBD, SRC1_2 peptide, read-out: RORγt Binding
T1 construct: the 6-His-(GST) RORγ-LBD was used which expressed and purified from baculovirus infected Sf-21 insect cells; made in house; host or cells: baculovirus-infected Sf-21 insect cells
T1 sequence (P51449 269-508 limits assumed): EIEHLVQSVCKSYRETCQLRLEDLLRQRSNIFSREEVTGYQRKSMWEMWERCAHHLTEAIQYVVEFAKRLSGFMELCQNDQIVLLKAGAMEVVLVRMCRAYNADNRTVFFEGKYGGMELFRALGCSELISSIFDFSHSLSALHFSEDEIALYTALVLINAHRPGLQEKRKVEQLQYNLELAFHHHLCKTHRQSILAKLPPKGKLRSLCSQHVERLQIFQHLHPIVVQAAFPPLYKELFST
Experimental: TR-FRET RORγt Binding Assay: RORγ-LBD contains a 6-His and GST tag peptide from SRC1-2 an aminoterminal biotinyl-[…] was employed and the 6-His-(GST) RORγ-LBD was used which expressed and purified from baculovirus infected Sf-21 insect cells from Invitrogen and purified using glutathione sepharose. […] The peptide binding due to dose-curves of compounds was added the 0.1% DMSO. Fluorescence at wavelength 340 nm was read in each well of […] using an Envision fluorescence reader in Time Resolved mode after overnight incubation at 4° C.

RORγt = biological target: T2, RORγt (Homo sapiens, UniProt P51449); test: RORγt-activated IL-17A Prom/LUCPorter HEK 293 cells luciferase reporter assay; assay type: cell-based; conditions: IL-17A Prom/LUCPorter HEK 293 cells transfected with RORγt, 16 h; read-out: RORγt Cell Specific
T2 construct: host or cells: IL-17A Prom/LUCPorter HEK 293 cell line (IMGENEX, IML-301)
T2 sequence (P51449 1-497 isoform P51449-2): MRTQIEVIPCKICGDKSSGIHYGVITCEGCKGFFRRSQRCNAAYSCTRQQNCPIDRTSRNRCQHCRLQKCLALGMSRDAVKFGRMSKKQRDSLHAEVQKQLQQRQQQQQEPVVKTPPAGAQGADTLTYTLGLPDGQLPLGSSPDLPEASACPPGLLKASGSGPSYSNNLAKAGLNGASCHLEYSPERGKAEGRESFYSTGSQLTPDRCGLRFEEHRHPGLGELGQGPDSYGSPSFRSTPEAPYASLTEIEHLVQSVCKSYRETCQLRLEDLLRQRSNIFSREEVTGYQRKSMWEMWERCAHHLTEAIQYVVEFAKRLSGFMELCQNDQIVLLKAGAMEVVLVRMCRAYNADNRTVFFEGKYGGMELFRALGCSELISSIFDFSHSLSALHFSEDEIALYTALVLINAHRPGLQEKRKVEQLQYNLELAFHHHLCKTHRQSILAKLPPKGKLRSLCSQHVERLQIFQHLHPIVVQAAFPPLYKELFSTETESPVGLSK
Experimental: Antagonistic (or inverse agonistic) effects of the test compounds on the RORγt-activated IL-17A Prom/LUCPorter™ HEK 293 cells were analyzed and IC50 of each compound was evaluated. […] Luciferase activity was analyzed using the luciferase reporter assay reagent (IMGENEX, LS100). The data were analyzed using Excel and Prism software. Percent activity was defined as 100×(1−(Well−Control A)/(Control B−Control A)), where Control A was the wells containing cells transfected with RORγt and Control B was the wells containing non-transfected cells. Both Controls A and B were treated with vehicle alone.

[1] = test system: IL-17 release from CD4+ T cells; test: Cytokine IL-17 estimation by HTRF, IL-17 release from CD4+ T cells; assay type: cell-based; conditions: Homo sapiens, IL-17 release from CD4+ T cells, HTRF, read-out: IL-17 Inhibition
Source text: The assay was designed to assess the potency of test compounds on IL-17 cytokine release from CD4+ T cells. In order to aid in the identification of potent inhibitors, the IC50's determined for the test compounds IL-17 release from CD4+ T cells through the generation of 10 point Dose Response Curves (DRC). Assay methods used to quantify IL-17 secretion is HTRF (Homogenous Time Resolved Fluorescence). IL-17 secreted is detected by anti-IL-17 MAb labeled with XL665, the second MAb labeled with Cryptate, which binds to specific epitopes of human IL-17. Upon close proximity of both acceptor and donor energy transfer (FRET) occurs. This technique has been further enhanced by using long-lived labels combined with the detection on a time-resolved fluorescence basis, allowing […] of prompt fluorescence interferences.
The assay was performed according to manufacturer's instruction. All the reagents were reconstituted according to instructions provided. The reagents were dispensed into a half area 96-well plate in the following order: […] or sample, IL-17 MAbXL665 and 5 μL IL-17 Cryptate. For the negative control, the standard or sample is replaced by […]. The plate is covered with a plate sealer and incubated at rt for 2 h. Following incubation, the plate sealer is removed and the plate is read using HTRF protocol on Envision Microplate reader. All of the data analysis was carried out using Microsoft Excel (2010) and IC50 was determined using GraphPad Prism 4 software. % Inhibition of the test compounds were determined utilizing the following formula: % Inhibition=100−(100*(Average Test Compound Counts−Average Negative Control Counts)/(Average Positive Control Counts−Average Negative Control Counts)).
We have established robust in vitro cell-based HTRF assay for the activation and stimulation of CD4+ T lymphocytes to T helper 17 (Th17) cell differentiation and IL-17 production.

Structure (SMILES)	IC50 (RORγ-LBD (RORγt)) [µM]	IC50 (RORγt) [µM]	IC50 [1] [µM]
COc1ccc2c(c1OC)CC(Cc1ncccc1C(F)(F)F)C2=O (stereo not drawn) [compound 169]	> 1	> 1	< 0.5
COc1cc2c(cc1Cl)CC(Cc1ccc(SC(F)(F)F)cc1)C2=O (stereo not drawn) [compound 172]	> 1	> 1	< 0.5
COc1cc2c(cc1Cl)CC(Cc1ncccc1C(F)(F)F)C2=O (stereo not drawn) [compound 174]	> 1	> 1	< 0.5
COc1ccc2c(c1Cl)CC(Cc1ccc(SC(F)(F)F)cc1)C2=O (stereo not drawn) [compound 177]	< 0.5	> 1	< 0.5
COc1ccc2c(c1Cl)CC(Cc1ncccc1C(F)(F)F)C2=O (stereo not drawn) [compound 179]	< 0.5	> 1	< 0.5
COc1ccc2c(c1)CC(Cc1ccc(SC(F)(F)F)cc1)C2=O (stereo not drawn) [compound 182]	> 1	> 1	< 0.5
COc1ccc2c(c1)CC(Cc1ncccc1C(F)(F)F)C2=O (stereo not drawn) [compound 184]	< 0.5	> 1	< 0.5
COc1cc2c(cc1O)C(=O)C(Cc1ccc(SC(F)(F)F)cc1)C2 (stereo not drawn) [compound 187]	> 1	> 1	< 0.5
CCS(=O)(=O)Oc1cc2c(cc1OC)CC(Cc1ccc(SC(F)(F)F)cc1)C2=O (stereo not drawn) [compound 188]	< 0.5	> 1	< 0.5
COc1cc2c(cc1O)C(=O)C(Cc1ncccc1C(F)(F)F)C2 (stereo not drawn) [compound 190]	< 0.5	> 1	< 0.5
CCS(=O)(=O)Oc1cc2c(cc1OC)CC(Cc1ncccc1C(F)(F)F)C2=O (stereo not drawn) [compound 191]	< 0.5	< 0.5	< 0.5
O=C1c2ccc(O)cc2CC1Cc1ccc(SC(F)(F)F)cc1 (stereo not drawn) [compound 193]	< 0.5	< 0.5	< 0.5
CCS(=O)(=O)Oc1ccc2c(c1)CC(Cc1ccc(SC(F)(F)F)cc1)C2=O (stereo not drawn) [compound 194]	< 0.5	< 0.5	< 0.5
COc1cc2c(cc1-c1ccccc1OC(F)(F)F)CC(Cc1ncccc1C(F)(F)F)C2=O (stereo not drawn) [compound 213]	< 0.5	> 1	< 0.5
COc1cc2c(cc1-c1ccc(OC(F)(F)F)cc1F)CC(Cc1ncccc1C(F)(F)F)C2=O (stereo not drawn) [compound 216]	> 1	> 1	< 0.5
COc1cc2c(cc1N1CCOCC1)CC(Cc1cc(C(F)(F)F)cc(C(O)(C(F)(F)F)C(F)(F)F)c1)C2=O (stereo not drawn) [compound 229, 2-(3-(1,1,1,3,3,3-hexafluoro-2-hydroxypropan-2-yl)-5-(trifluoromethyl)benzyl)-6-methoxy-5-morpholino-2,3-dihydro-1H-inden-1-one]	< 0.5	< 0.5	< 0.5
COc1cc2c(cc1N1CCOCC1)CC(Cc1c(F)ccc(C(O)(C(F)(F)F)C(F)(F)F)c1F)C2=O (stereo not drawn) [compound 232, 2-(2,6-difluoro-3-(1,1,1,3,3,3-hexafluoro-2-hydroxypropan-2-yl)benzyl)-6-methoxy-5-morpholino-2,3-dihydro-1H-inden-1-one]	< 0.5	< 0.5	< 0.5
COc1cc2c(cc1N1CCN(C)CC1)CC(Cc1cc(OC(F)(F)F)cc(C(O)(C(F)(F)F)C(F)(F)F)c1)C2=O (stereo not drawn) [compound 236, 2-(3-(1,1,1,3,3,3-hexafluoro-2-hydroxypropan-2-yl)-5-(trifluoromethoxy)benzyl)-6-methoxy-5-(4-methylpiperazin-1-yl)-2,3-dihydro-1H-inden-1-one]	> 1	> 1	< 0.5
COc1cc2c(cc1N1CCN(C)CC1)CC(Cc1cc(C(F)(F)F)cc(C(O)(C(F)(F)F)C(F)(F)F)c1)C2=O (stereo not drawn) [compound 240, 2-(3-(1,1,1,3,3,3-hexafluoro-2-hydroxypropan-2-yl)-5-(trifluoromethyl)benzyl)-6-methoxy-5-(4-methylpiperazin-1-yl)-2,3-dihydro-1H-inden-1-one]	< 0.5	< 0.5	< 0.5
COc1cc2c(cc1N1CCOCC1)CC(Cc1cncc(C(O)(C(F)(F)F)C(F)(F)F)c1)C2=O (stereo not drawn) [compound 245]	> 1	< 0.5	> 1
COc1cc2c(cc1N1CCN(CCO)CC1)CC(Cc1ncccc1C(F)(F)F)C2=O (stereo not drawn) [compound 251]	< 0.5	< 0.5	< 0.5
COc1cc2c(cc1N1CCN(C)CC1)CC(Cc1cncc(C(O)(C(F)(F)F)C(F)(F)F)c1)C2=O (stereo not drawn) [compound 256]	< 0.5	< 0.5	< 0.5
COc1cc2c(cc1N1CCOCC1)CC(Cc1cccc(C(O)(C(F)(F)F)C(F)(F)F)n1)C2=O (stereo not drawn) [compound 266]	< 0.5	< 0.5	< 0.5
COc1cc2c(cc1N1CCOCC1)CC(Cc1ncc(C(O)(C(F)(F)F)C(F)(F)F)cc1C(F)(F)F)C2=O (stereo not drawn) [compound 268]	< 0.5	< 0.5	< 0.5
